Reference: ChEMBL document CHEMBL1201862, “PubChem BioAssay data set” (2004)
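All cell lines were grown in 96-well plates and treated with compound for 48 hours. GI50 = concentration required for 50% inhibition of growth.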 Calls of active or inactive are those of the source. Cut-off read from the data, not from the text of the source: active = GI50 up to about 1.1 µM and inactive = higher.

Key:
Experiment in all cases: growth of human tumour cells (NCI), 48 h
[1] = test system: 786-0
[2] = test system: A498
[3] = test system: A549
[4] = test system: ACHN
[5] = test system: BT-549
[6] = test system: CAKI-1
[7] = test system: CCRF-CEM
[8] = test system: COLO 205
[9] = test system: DLD-1
[10] = test system: DMS-114
[11] = test system: DMS-273
[12] = test system: DU-145
[13] = test system: EKVX
[14] = test system: HCC 2998
[15] = test system: HCT-116
[16] = test system: HCT-15
[17] = test system: HL-60
[18] = test system: HOP-18
[19] = test system: HOP-62
[20] = test system: HOP-92
[21] = test system: HT-29
[22] = test system: Hs-578T
[23] = test system: IGROV-1
[24] = test system: K562
[25] = test system: KM-20L2
[26] = test system: KM12
[27] = test system: LOX IMVI
[28] = test system: LXFL 529
[29] = test system: M14
[30] = test system: M19-MEL
[31] = test system: MCF7
[32] = test system: MDA-MB-231
[33] = test system: MDA-MB-435
[34] = test system: MOLT-4
[35] = test system: Malme-3M
[36] = test system: NCI-H226
[37] = test system: NCI-H23
[38] = test system: NCI-H460
[39] = test system: NCI-H522
[40] = test system: NCI/ADR-RES
[41] = test system: OVCAR-3
[42] = test system: OVCAR-5
[43] = test system: OVCAR-8
[44] = test system: PC-3
[45] = test system: RPMI-8226
[46] = test system: RXF 393
[47] = test system: SF-268
[48] = test system: SF-295
[49] = test system: SF-539
[50] = test system: SK-MEL-28
[51] = test system: SK-MEL-2
[52] = test system: SK-MEL-5
[53] = test system: SK-OV-3
[54] = test system: SN12C
[55] = test system: SNB-19
[56] = test system: SNB-75
[57] = test system: SNB-78
[58] = test system: SR
[59] = test system: SW-620
[60] = test system: T47D
[61] = test system: TK-10
[62] = test system: U-251
[63] = test system: UACC-257
[64] = test system: UACC-62
[65] = test system: UO-31

## COc1cc2c(cc1OC)C(Cl)C(c1ccc(F)cc1)=C2Cl (stereo not given)
[1]
  GI50: 11.7 µM (inactive)
[2]
  GI50: 14.9 µM (inactive)
[3]
  GI50: 14.9 µM (inactive)
[4]
  GI50: 13.2 µM (inactive)
[5]
  GI50: 4.79 µM (inactive)
[6]
  GI50: 13.8 µM (inactive)
[7]
  GI50: 5.77 µM (inactive)
[8]
  GI50: 16.6 µM (inactive)
[9]
  GI50: 16.9 µM (inactive)
[10]
  GI50: 13.2 µM (inactive)
[11]
  GI50: 16.4 µM (inactive)
[12]
  GI50: 14.9 µM (inactive)
[13]
  GI50: 7.19 µM (inactive)
[14]
  GI50: 15.1 µM (inactive)
[15]
  GI50: 12.9 µM (inactive)
[16]
  GI50: 12.9 µM
[17]
  GI50: 5.68 µM (inactive)
[18]
  GI50: 15.2 µM (inactive)
[19]
  GI50: 16.5 µM (inactive)
[20]
  GI50: 9.08 µM (inactive)
[21]
  GI50: 15.9 µM (inactive)
[22]
  GI50: 11.7 µM (inactive)
[23]
  GI50: 17.4 µM (inactive)
[24]
  GI50: 6.12 µM (inactive)
[25]
  GI50: 14.8 µM (inactive)
[26]
  GI50: 16.1 µM (inactive)
[27]
  GI50: 11.6 µM (inactive)
[28]
  GI50: 11.7 µM (inactive)
[29]
  GI50: 15.4 µM (inactive)
[30]
  GI50: 16.8 µM (inactive)
[31]
  GI50: 11.6 µM (inactive)
[32]
  GI50: 13.8 µM (inactive)
[33]
  GI50: 11.4 µM (inactive)
[34]
  GI50: 5.41 µM (inactive)
[35]
  GI50: 13.2 µM (inactive)
[36]
  GI50: 22.7 µM (inactive)
[37]
  GI50: 11.8 µM (inactive)
[38]
  GI50: 11.5 µM (inactive)
[39]
  GI50: 7.73 µM (inactive)
[40]
  GI50: 13.6 µM (inactive)
[41]
  GI50: 16.7 µM (inactive)
[42]
  GI50: 16.6 µM (inactive)
[43]
  GI50: 14.7 µM (inactive)
[44]
  GI50: 12.4 µM (inactive)
[45]
  GI50: 9.06 µM (inactive)
[46]
  GI50: 15.4 µM (inactive)
[47]
  GI50: 15.7 µM (inactive)
[48]
  GI50: 14.4 µM (inactive)
[49]
  GI50: 16.3 µM (inactive)
[50]
  GI50: 17.3 µM (inactive)
[51]
  GI50: 12.8 µM (inactive)
[52]
  GI50: 14.1 µM (inactive)
[53]
  GI50: 20.1 µM (inactive)
[54]
  GI50: 12.8 µM (inactive)
[55]
  GI50: 17.5 µM (inactive)
[56]
  GI50: 14.6 µM (inactive)
[57]
  GI50: 15.4 µM (inactive)
[58]
  GI50: 3.01 µM (inactive)
[59]
  GI50: 12.3 µM (inactive)
[60]
  GI50: 10 µM (inactive)
[61]
  GI50: 13.6 µM (inactive)
[62]
  GI50: 13.1 µM (inactive)
[63]
  GI50: 14.9 µM (inactive)
[64]
  GI50: 12.9 µM (inactive)
[65]
  GI50: 13.5 µM (inactive)
